Reference: ChEMBL document CHEMBL1139612 (Bioorg Med Chem Lett, 2005)

What was measured:
[1] = molecular target: T1, Adrenergic receptor alpha-1 (Rattus norvegicus, UniProt P15823+P23944+P43140); test: Inhibitory concentration against Alpha-1 adrenergic receptor in rat cerebral cortex membrane using [3H]prazosin as radioligand; assay type: cell membranes
T1 sequence (P15823 whole entry): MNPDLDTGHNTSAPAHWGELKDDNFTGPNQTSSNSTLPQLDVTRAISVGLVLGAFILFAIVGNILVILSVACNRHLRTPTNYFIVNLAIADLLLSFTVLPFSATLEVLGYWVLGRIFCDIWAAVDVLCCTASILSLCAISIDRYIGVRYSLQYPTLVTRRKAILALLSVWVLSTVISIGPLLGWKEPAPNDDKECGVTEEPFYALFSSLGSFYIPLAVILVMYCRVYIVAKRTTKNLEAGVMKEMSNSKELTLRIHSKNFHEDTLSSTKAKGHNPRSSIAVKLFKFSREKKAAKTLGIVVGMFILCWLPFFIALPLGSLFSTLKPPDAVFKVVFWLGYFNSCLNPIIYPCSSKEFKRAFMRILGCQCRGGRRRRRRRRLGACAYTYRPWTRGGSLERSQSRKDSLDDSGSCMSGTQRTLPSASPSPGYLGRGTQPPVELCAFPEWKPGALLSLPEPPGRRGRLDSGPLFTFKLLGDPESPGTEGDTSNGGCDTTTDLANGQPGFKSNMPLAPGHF
T1 sequence (P23944 whole entry): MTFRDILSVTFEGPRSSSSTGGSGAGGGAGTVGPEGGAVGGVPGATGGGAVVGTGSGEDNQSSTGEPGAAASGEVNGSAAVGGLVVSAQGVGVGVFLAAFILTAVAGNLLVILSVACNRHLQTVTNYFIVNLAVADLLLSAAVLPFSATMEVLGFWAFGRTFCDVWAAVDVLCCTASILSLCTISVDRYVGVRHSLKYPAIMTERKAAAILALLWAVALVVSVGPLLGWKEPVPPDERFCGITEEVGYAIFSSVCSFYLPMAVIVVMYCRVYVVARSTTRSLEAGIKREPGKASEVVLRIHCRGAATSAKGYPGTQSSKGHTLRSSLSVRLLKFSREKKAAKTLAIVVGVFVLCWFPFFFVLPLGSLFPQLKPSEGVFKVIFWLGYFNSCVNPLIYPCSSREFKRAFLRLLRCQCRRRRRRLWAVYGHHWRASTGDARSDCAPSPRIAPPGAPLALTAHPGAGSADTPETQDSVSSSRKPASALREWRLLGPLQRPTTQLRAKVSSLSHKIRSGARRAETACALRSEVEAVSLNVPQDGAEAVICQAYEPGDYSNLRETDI
T1 sequence (P43140 whole entry): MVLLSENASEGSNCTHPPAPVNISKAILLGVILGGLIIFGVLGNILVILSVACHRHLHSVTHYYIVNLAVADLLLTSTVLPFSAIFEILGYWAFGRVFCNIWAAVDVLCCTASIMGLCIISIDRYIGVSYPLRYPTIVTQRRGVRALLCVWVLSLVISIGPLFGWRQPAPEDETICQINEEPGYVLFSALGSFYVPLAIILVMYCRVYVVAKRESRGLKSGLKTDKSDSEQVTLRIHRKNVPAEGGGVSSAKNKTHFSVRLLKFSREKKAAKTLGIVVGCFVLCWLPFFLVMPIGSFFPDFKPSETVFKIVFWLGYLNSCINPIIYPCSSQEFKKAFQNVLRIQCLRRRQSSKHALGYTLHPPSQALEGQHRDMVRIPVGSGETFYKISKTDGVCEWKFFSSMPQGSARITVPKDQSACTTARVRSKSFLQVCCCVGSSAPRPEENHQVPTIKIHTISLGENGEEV

[2] = molecular target: Serotonin 1a (5-HT1a) receptor/Adrenergic receptor alpha-1 (Rattus norvegicus) (UniProt P15823+P23944+P43140+P19327); test: Ratio of alpha-1 adrenergic receptor to that of 5-hydroxytryptamine 1A receptor; assay type: protein assay
[3] = molecular target: T2, 5-hydroxytryptamine receptor 1A (Rattus norvegicus, UniProt P19327); test: Inhibitory concentration against 5-hydroxytryptamine 1A receptor in rat hippocampus membrane using [3H]-8-OH-DPAT as radioligand; assay type: cell membranes
T2 sequence (P19327 whole entry): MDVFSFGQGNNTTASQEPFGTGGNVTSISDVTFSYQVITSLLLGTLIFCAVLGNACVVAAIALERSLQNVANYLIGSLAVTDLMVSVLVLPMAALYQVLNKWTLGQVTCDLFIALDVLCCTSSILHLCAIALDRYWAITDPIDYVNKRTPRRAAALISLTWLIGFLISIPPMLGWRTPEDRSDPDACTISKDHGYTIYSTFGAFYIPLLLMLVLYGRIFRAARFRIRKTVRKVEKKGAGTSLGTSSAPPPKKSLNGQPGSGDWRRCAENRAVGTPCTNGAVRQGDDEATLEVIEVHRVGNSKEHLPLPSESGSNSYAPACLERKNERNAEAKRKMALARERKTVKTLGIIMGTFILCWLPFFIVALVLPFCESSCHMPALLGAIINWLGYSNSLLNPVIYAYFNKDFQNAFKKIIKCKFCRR

D(2) dopamine receptor = D(2) dopamine receptor (Rattus norvegicus, UniProt P61169); test: Inhibitory concentration against Dopamine receptor D2 in rat striatum membrane using [3H]raclopride as radioligand; assay type: cell membranes
Chain of D(2) dopamine receptor (P61169 whole entry): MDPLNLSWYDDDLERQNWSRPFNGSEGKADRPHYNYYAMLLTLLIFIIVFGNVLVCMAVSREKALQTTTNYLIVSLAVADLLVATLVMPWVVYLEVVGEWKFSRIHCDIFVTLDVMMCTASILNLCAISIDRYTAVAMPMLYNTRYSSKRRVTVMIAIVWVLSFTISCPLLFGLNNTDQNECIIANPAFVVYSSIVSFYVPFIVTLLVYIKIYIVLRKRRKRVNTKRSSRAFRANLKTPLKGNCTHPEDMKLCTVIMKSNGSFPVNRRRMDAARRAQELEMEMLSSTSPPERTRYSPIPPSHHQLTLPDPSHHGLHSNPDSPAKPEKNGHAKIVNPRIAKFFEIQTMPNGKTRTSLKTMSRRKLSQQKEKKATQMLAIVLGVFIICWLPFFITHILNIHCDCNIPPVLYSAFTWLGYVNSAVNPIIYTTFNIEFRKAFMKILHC

Rattus norvegicus = species: Rattus norvegicus; test: Ratio of dopamine receptor D2 to that of 5-hydroxytryptamine 1A receptor

| Compound | IC50 [1] [nM] | Ratio [2] | IC50 [3] [nM] | IC50 (D(2) dopamine receptor) [nM] | Ratio (Rattus norvegicus) |
| --- | --- | --- | --- | --- | --- |
| Cl.O=C1c2ccccc2OC=C(Cl)N1CCCCN1CCC(O)(c2ncccn2)CC1 | 9560 | 3.6 |  |  |  |
| O=C(O)/C=C/C(=O)O.O=C1c2ccccc2OC=C(Cl)N1CCCCN1CCC=C(c2ncccn2)C1 | 384 | 4.8 | 79.6 | 893 | 11 |
| O=C1c2ccccc2OC=C(Cl)N1CCCCN1CCCC(c2ncccn2)C1 (stereo not given) |  |  | 314 |  |  |
| Cl.O=C1c2ccccc2OC=C(Cl)N1CCCCN1CCC(c2ncccn2)CC1 | 2000 | 344 |  |  | 310 |
| O=C1c2ccccc2OC=C(Cl)N1CCCCN1CCN(c2ncccn2)CC1 | 544 | 342 |  |  | 125 |
| O=C1c2ccccc2OC=C(Cl)N1CCCCN1CCN(c2ccccn2)CC1 | 43 | 56 |  |  | 66 |
| Cl.O=C1c2ccccc2OC=C(Cl)N1CCCCN1CC=C(c2ncccn2)CC1 | 924 | 670 |  |  | 358 |
